From PMC8979514 (Journal of Enzyme Inhibition and Medicinal Chemistry, 2022)
Like-named read-outs stand apart in the source and are kept apart here.

How the values were obtained:
in vitro [1] = type: cell-based, human; details: human, 24 h incubation, MTT, mean ± SD, read-out: Cells viability of SH-SY5Y cell line (% of control)
Protocol: (§1) Human neuroblastoma SH-SY5Y and human liver hepatocellular HepG2 cell lines were purchased from the American Type Culture Collections (ATCC). SH-SY5Y cells were cultured in a Dulbecco’s Modified Eagle Medium (DMEM) supplemented with Ham F12 medium (ratio 1:1), whereas HepG2 cells in Eagle’s Minimum Essential Medium (EMEM). Additionally, all culture medium was supplemented with 10% foetal bovine serum (FBS), streptomycin (100 µg/mL) and penicillin (100 U/mL). The cells were seeded into flasks containing supplemented medium and maintained in a humidified atmosphere of 5% CO2 and 95% air at 37 °C. The cell viability assay was performed in confluence of the cells in serum free medium (without FBS) was 80–90%.
(§2) […]. SH-SY5Y cells and HepG2 cells were seeded on 96-well plate with a density of 27–29 × 10^3 cells/well and 12–14 × 10^3/well respectively. […]. The DMSO concentration of every well in final dilutions was equal to or less than 0.1%. After incubation with compounds, MTT was added and 2 h later, the absorbance was measured at 492 nm. The result was expressed as the percentage of control cells (cultured in serum-free medium containing 0.1% of DMSO) which was set to 100%. The MTT test was performed in three independent replications. Data analysis was performed by using GraphPad Prism 5.0 Software.
(§3) SH-SY5Y a standard cell line used for determining neurocytotoxic effect of potential drug. Moreover it is well-established in vitro model of neurodegenerative disorders. […].

in vitro [2] = type: cell-based, human; details: human; MTT, 24 h incubation; read-out: Cytotoxicity on HepG2 cells IC50
Protocol: as §1, §2
(§4) . HepG2 is a commonly used in vitro model for the investigation of hepatocytotoxic effect of xenobiotics [40]^,[41]. In our study, we evaluated the toxicity of our new analogs against […]. […]

[3] = target: T1, Acetylcholinesterase (eeAChE, E.C. 3.1.1.7) (Electrophorus electricus, UniProt O42275); experiment: biochemical; type: biochemical, electric eel; details: for IC50: eeAChE; for Selectivity IC50(eeAChE)/ IC50(BChE): ratio of IC50 values
T1 construct: purchased Sigma Aldrich
T1 sequence (O42275 24-633): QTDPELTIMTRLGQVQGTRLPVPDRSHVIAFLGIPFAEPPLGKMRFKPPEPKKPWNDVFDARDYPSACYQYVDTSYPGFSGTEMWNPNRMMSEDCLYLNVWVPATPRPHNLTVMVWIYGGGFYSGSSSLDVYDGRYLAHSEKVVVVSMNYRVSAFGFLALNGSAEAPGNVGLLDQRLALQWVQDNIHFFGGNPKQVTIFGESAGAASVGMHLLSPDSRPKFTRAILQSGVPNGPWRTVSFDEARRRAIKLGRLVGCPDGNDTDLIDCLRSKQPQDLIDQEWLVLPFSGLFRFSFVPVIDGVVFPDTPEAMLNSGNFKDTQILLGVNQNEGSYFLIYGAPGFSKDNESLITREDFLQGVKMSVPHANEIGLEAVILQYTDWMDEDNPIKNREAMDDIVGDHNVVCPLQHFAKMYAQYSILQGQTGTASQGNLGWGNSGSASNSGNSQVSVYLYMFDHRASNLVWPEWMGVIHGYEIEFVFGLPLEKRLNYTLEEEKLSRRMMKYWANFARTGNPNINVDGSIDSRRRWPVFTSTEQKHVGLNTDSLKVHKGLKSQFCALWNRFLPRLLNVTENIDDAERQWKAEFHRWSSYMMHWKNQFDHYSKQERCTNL
Protocol: (§5) [33] Inhibitory activity was tested at room temperature on 96-well plate using Ellman’s method. Lyophilised powders of AChE and BChE were dissolved in phosphate buffer (pH 7.5, 0.1 M) with 1% BSA.
(§6) Each well was filled to a total volume of 330 µL. The content inculded 285 µL of phosphate buffer, 5 µL 2 units/mL of eeAChE/BChE, 10 µL 0.01 M of DTNB, 10 µl of tested compound (for the control wells 10 µL of the phosphate buffer instead of tested compound) and 20 µL (7.5 mM) ATCh/BTCh. The hydrolysis of ATCh/BTCh was initiated by adding it to the well directly before the measurement. The absorbance was recorded at 1 min intervals for 8 min in total. The percent of inhibition was calculated by nonlinear regression analysis of the response–concentration (log) curve as a percentage of the reaction rate of the tested compounds over the control. Data analysis was performed by using GraphPad Prism 5.0 Software to give the IC50 values. The experiment was carried out in triplicate.

[4] = target: T2, butyrylcholinesterase (BChE, E.C. 3.1.1.8) (Equus caballus, UniProt P81908); experiment: biochemical; set-up: species or system equine serum; details: for IC50: BChE from equine serum
T2 construct: purchased Sigma Aldrich
T2 sequence (P81908 whole entry): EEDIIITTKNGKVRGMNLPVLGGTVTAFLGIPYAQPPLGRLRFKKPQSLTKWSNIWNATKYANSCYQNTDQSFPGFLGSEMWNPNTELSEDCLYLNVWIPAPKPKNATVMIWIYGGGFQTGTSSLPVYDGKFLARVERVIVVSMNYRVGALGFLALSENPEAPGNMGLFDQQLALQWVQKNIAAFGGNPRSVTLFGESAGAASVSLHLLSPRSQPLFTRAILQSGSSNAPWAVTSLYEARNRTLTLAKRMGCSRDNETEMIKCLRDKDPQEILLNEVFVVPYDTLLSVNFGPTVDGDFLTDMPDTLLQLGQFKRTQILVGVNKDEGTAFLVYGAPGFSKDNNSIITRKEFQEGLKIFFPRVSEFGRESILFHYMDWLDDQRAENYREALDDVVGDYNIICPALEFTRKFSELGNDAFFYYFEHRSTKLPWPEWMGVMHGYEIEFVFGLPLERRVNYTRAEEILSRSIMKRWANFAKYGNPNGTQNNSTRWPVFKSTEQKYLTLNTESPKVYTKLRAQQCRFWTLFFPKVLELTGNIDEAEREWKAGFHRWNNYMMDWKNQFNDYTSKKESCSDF
Protocol: as §5, §6

SH-SY5Y cells = experiment: in vitro; type: cell-based, human; details: 100 µM, 24 h incubation, MTT, mean ± SD
Protocol: as §1, §2, §3

HepG2 cells = experiment: in vitro; type: cell-based, human; details: HepG2 cells
Protocol: as §1, §2, §4

[5] = IC50 AChE, Ellman's method, phosphate buffer pH 7.5, room temperature
[6] = pIC50 ± S.E.M. AChE, value in brackets under the IC50
[7] = IC50 BChE, Ellman's method, phosphate buffer pH 7.5, room temperature
[8] = pIC50 ± S.E.M. BChE, value in brackets under the IC50
[9] = Ellman's method, phosphate buffer pH 7.5, room temperature, read-out: IC50 AChE
[10] = value in brackets under the IC50, read-out: pIC50 ± S.E.M. AChE (converted)
[11] = Ellman's method, phosphate buffer pH 7.5, room temperature, read-out: IC50 BChE
[12] = value in brackets under the IC50, read-out: pIC50 ± S.E.M. BChE (converted)
[13] = from IC50 values, versus tacrine

Row | Compound | viability at 24 h, 12.5 µM (in vitro [1]) [%] | viability at 24 h, 50 µM (in vitro [1]) [%] | viability at 24 h, 100 µM (in vitro [1]) [%] | IC50 at 24 h (in vitro [2]) [nM] | IC50 [3, 5] [nM] | IC50 [3, 6] [nM] | Selectivity IC50(eeAChE)/ IC50(BChE) [3] | IC50 [4, 7] [nM] | IC50 [4, 8] [nM] | viability at 12.5 µM (in vitro [1]) [%] | viability at 50 µM (in vitro [1]) [%] | viability at 100 µM (in vitro [1]) [%] | IC50 (in vitro [2]) [nM] | IC50 [3, 9] [nM] | IC50 [3, 10] [nM] | IC50 [4, 11] [nM] | IC50 [4, 12] [nM] | other results
1 | CCOP(=O)(NCCCCCCNc1c2c(nc3ccccc13)CCCC2)OCC [Compound 6, Diethyl(6-((1,2,3,4-tetrahydroacridin-9-yl)amino)hexyl)phosphoramidate] | 74.3 ± 4.9 | 71.7 ± 7.2 | 67.5 ± 9 | 140000 | 32.6 | 32.6 | 4.82 | 6.75 | 6.76 |  |  |  |  |  |  |  |  | 
2 | O=P(NCCCCCCNc1c2c(nc3ccccc13)CCCC2)(Oc1ccccc1)Oc1ccccc1 [Compound 7, Diphenyl(6-((1,2,3,4-tetrahydroacridin-9-yl)amino)hexyl)phosphoramidate] |  |  |  |  |  |  | 3.04 |  |  | 47.4 ± 1.2 | 41.3 ± 1.5 | 30.1 ± 5 | 14600 | 125 | 125 | 41.1 | 41.1 | 
3 | CCOP(=O)(NCCCCCCCCNc1c2c(nc3ccccc13)CCCC2)OCC [Compound 8, Diethyl(8-((1,2,3,4-tetrahydroacridin-9-yl)amino)octyl)phosphoramidate] | 76.7 ± 5.8 | 51.6 ± 5.4 | 52.2 ± 1 | 23700 | 6.11 | 6.11 | 0.48 | 12.9 | 12.9 |  |  |  |  |  |  |  |  | fold more potent than tacrine against AChE [3, 13]: 6 fold
4 | CCCCOP(=O)(NCCCCCCCCNc1c2c(nc3ccccc13)CCCC2)OCCCC [Compound 9, Dibutyl(8-((1,2,3,4-tetrahydroacridin-9-yl)amino)octyl)phosphoramidate] | 77.5 ± 13.5 | 55.7 ± 11.5 | 54.6 ± 8.4 | 43300 | 8.18 | 8.18 | 0.2 | 41.5 | 41.5 |  |  |  |  |  |  |  |  | 
5 | O=P(NCCCCCCCCNc1c2c(nc3ccccc13)CCCC2)(Oc1ccccc1)Oc1ccccc1 [Compound 10, Diphenyl(8-((1,2,3,4-tetrahydroacridin-9-yl)amino)octyl)phosphoramidate] |  |  |  |  |  |  | 0.24 |  |  | 80.1 ± 16.8 | 63.7 ± 5.7 | 48.1 ± 8.1 | 7150 | 44.2 | 44.3 | 188 | 188 | 
6 | CCOP(=O)(NCCCCCCCCCCCCNc1c2c(nc3ccccc13)CCCC2)OCC [Compound 11, Diethyl(12-((1,2,3,4-tetrahydroacridin-9-yl)amino)dodecyl)phosphoramidate] |  |  |  |  |  |  | 0.51 |  |  | 35.4 ± 4.6 | 35.5 ± 4.1 | 31.1 ± 6.4 | 50 | 33.3 | 33.3 | 65.5 | 65.5 | 
7 | CCCCOP(=O)(NCCCCCCCCCCCCNc1c2c(nc3ccccc13)CCCC2)OCCCC [Compound 12, Dibutyl(12-((1,2,3,4-tetrahydroacridin-9-yl)amino)dodecyl)phosphoramidate] | 69.3 ± 3.7 | 52.1 ± 3.1 | 53.5 ± 5.8 | 20800 | 16.3 | 16.3 | 0.27 | 61.2 | 61.2 |  |  |  |  |  |  |  |  | 
8 | O=P(NCCCCCCCCCCCCNc1c2c(nc3ccccc13)CCCC2)(Oc1ccccc1)Oc1ccccc1 [Compound 13, Diphenyl(12-((1,2,3,4-tetrahydroacridin-9-yl)amino)dodecyl)phosphoramidate] | 40.4 ± 7.6 | 38.4 ± 7.6 | 38 ± 3.8 |  | 9.96 | 9.95 | 5.06 | 1.97 | 1.97 |  |  |  |  |  |  |  |  | fold more potent than tacrine against BChE [4, 13]: 12 fold
9 | CCOP(=O)(OCC)OCCCNc1c2c(nc3ccccc13)CCCC2 [Compound 16, Diethyl(3-((1,2,3,4-tetrahydroacridin-9-yl)amino)propyl)phosphate] |  |  |  |  |  |  | 14.36 |  |  | 88.1 ± 7.8 | 80 ± 7.7 | 83.5 | 114000 | 246 | 245 | 17.1 | 17.1 | Cells viability of SH-SY5Y cell line (% of control) (SH-SY5Y cells): 83.47 ± 8.6 % of control
10 | CCCCOP(=O)(OCCCC)OCCCNc1c2c(nc3ccccc13)CCCC2 [Compound 17, Dibutyl(3-((1,2,3,4-tetrahydroacridin-9-yl)amino)propyl)phosphate] | 94.4 ± 5.1 | 67.7 ± 14.7 | 63.2 ± 12.2 | 72300 | 110 | 110 | 3.78 | 29.1 | 29.1 |  |  |  |  |  |  |  |  | 
11 | O=P(OCCCNc1c2c(nc3ccccc13)CCCC2)(Oc1ccccc1)Oc1ccccc1 [Compound 18, Diphenyl(3-((1,2,3,4-tetrahydroacridin-9-yl)amino)propyl)phosphate] | 79.5 ± 7.4 | 71.2 ± 20.5 | 59 ± 20.3 | 53800 | 58.6 | 58.6 | 1.55 | 37.7 |  |  |  |  |  |  |  |  |  | 
12 | CCOP(=O)(OCC)OCCNCCNc1c2c(nc3ccccc13)CCCC2 [Compound 19, Diethyl(2-((2-((1,2,3,4-tetrahydroacridin-9-yl)amino)ethyl)amino)ethyl)phosphate] |  |  |  |  |  |  | 6.08 |  |  | 85.5 ± 12.6 | 82.6 ± 3.2 | 81.1 | > 600000 | 677 | 676 | 111 | 112 | Cells viability of SH-SY5Y cell line (% of control) (SH-SY5Y cells): 81.12 ± 5.0 % of control; hepatocytotoxicity in MTT assay (in words) (HepG2 cells): lack of hepatocytotoxicity
13 | CCCCOP(=O)(OCCCC)OCCNCCNc1c2c(nc3ccccc13)CCCC2 [Compound 20, Dibutyl(2-((2-((1,2,3,4-tetrahydroacridin-9-yl)amino)ethyl)amino)ethyl)phosphate] | 78.9 ± 8.6 | 79.7 ± 1.1 | 68.6 ± 14.5 | 134000 | 81.6 | 81.5 | 0.44 | 186 |  |  |  |  |  |  |  |  |  | 
14 | O=P(OCCNCCNc1c2c(nc3ccccc13)CCCC2)(Oc1ccccc1)Oc1ccccc1 [Compound 21, Diphenyl(2-((2-((1,2,3,4-tetrahydroacridin-9-yl)amino)ethyl)amino)ethyl)phosphate] | 52.3 ± 5 | 42.7 ± 6.4 | 30.7 ± 1.5 |  | 501 | 501 | 12.22 | 41 | 41 |  |  |  |  |  |  |  |  | 
